Experimental data taken from patent US11058668B2 (EIDOS THERAPEUTICS, INC., priority 2018, dated 2021).
Several values for one entry are separate records, joined by “and”; a condition that tells them apart may be missing. Equal values may be shown once. Read-outs that look alike come from different tables or passages of the source.

How the values were obtained:
[1] = Population PK analysis, effect of disease state and diuretics; format: in vivo, human
Text: Thus, the final model retained disease state on the central volume of distribution.
Of the 17 subjects who were on placebo, 14 were on furosemide or torsemide.

[2] = Phase 1 (AG10-001) multiple ascending dose pharmacokinetics; format: in vivo, human; settings: for Cmax / Tmax / AUC(0-t): human, plasma, oral, geometric mean; for AUC(0-t): read-out: AUC0-12
Protocol: Quantitation was performed using a weighted 1/x^2 linear least squares regression analysis generated from calibration standards prepared on the day of extraction. […]

tetrameric TTR [3] = molecular target: T1, tetrameric TTR (Homo sapiens, UniProt P02766, V50M); assay: Phase 2 study, Western blot of tetrameric TTR ex vivo; format: in vivo; settings: individual with V30M TTR mutation, 800 mg b.i.d.
T1 construct: monitoring TTR serum concentrations in trial participants; from tissue; host or cells: serum / plasma of ATTR-CM patients
Protocol: (§5) Blood plasma samples from the subject are diluted with acidification buffer (sodium acetate, KCl, EDTA, DTT, pH about 4.0) for both the 0 and 72 hour time point. Time 0 hr samples are directly cross-linked with glutaraldehyde, and then quenched. 72 hr samples are incubated at room temperature for 72 hr and then cross-linked and quenched by the same protocol. All samples are then denatured by adding SDS gel loading buffer and boiled prior to gel loading. Each sample is separated in SDS-PAGE gels and analyzed by immunoblotting using anti-TTR antiserum (Polyclonal Rabbit Anti-Human Prealbumin. DAKO Cat# A0002). The density of all TTR bands are quantified using infrared LICOR imaging system or Fluorescence Imaging system and reported. Normalization by IgG band using LICOR 925-32232 or Invitrogen 84546.

TTR [4] = molecular target: T2, TTR (Homo sapiens, UniProt P02766); assay: Phase 2 study in ATTR-CM patients, serum TTR concentration (ARUP Prealbumin assay); format: in vivo; parameters: monitoring TTR serum concentrations in trial participants; from tissue; host or cells: serum / plasma of ATTR-CM patients; settings: WT
Protocol: (§1) Screening and randomization will be followed by a 28-day blinded, placebo-controlled treatment period. Approximately 45 subjects are planned to enroll in the Phase 2 study.
(§2) An ARUP Prealbumin assay was also used to analyze TTR blood serum concentration in the MAD cohorts tested. ARUP analyzes samples for prealbumin using the prealbumin reagent kit provided by Roche Diagnostics and run on the Roche Diagnostics c702 module. Lowest reportable limit is 3 mg/dL.
(§3) The phase 2 clinical study was performed essentially as described in Example 3. A total of 49 patents were included instead of 45: 16 receiving 400 mg bid; 16 receiving 800 mg bid; and 17 receiving placebo.
(§4) TTR stabilization was measured ex vivo using the FPE and Western blot assays described at the beginning of the examples section. TTR stabilization was measured in vivo by monitoring TTR serum concentrations in trial participants.

[5] = molecular target: T3, human serum albumin (HSA) (Homo sapiens, UniProt P02768); assay: biochemical
Protocol: (§6) Isothermal Titration Calorimetry (ITC). Binding experiments were performed using MicroCal PEAQ-ITC at 25° C. […] 19 injections of ligand (2.0 μL each) were injected into the ITC cell (at 25° C.) to the point that TTR was fully saturated with ligand. Calorimetric data were plotted and fitted using the standard single-site binding model.

TTR [6] = assay: Phase 2 study in ATTR-CM patients, serum TTR concentration (ARUP Prealbumin assay); format: in vivo, human; settings: for Blood Serum TTR Concentration, Average Change: V122I; for Blood Serum TTR Concentration, Average Change (baseline to day 28): all genotypes, ATTR-CM patients
Protocol: as §1, §2, §3, §4

TTR [7] = molecular target: T4, TTR (Homo sapiens, UniProt P02766, V50M); assay: as above; format: in vivo; settings: 800 mg b.i.d., V30M
T4 construct: monitoring TTR serum concentrations in trial participants; from tissue; host or cells: serum / plasma of ATTR-CM patients
Protocol: as §1, §2, §3, §4

TTR [8] = molecular target: T5, TTR (Macaca fascicularis, UniProt Q8HXW1); assay: Single dose study in monkeys, FPE assay on serum; format: in vivo, cynomolgus monkey
T5 construct: from tissue; host or cells: serum of dosed male cynomolgus monkeys
Protocol: There was a washout period of two weeks between the two phases. Blood samples were collected at pre-dose and at approximately 0.083 (IV only), 0.25, 0.5, 1, 2, 4, 8, 12, 24, 48, 72 and 96 hours post-dose. Plasma samples were assayed for AG10 and AG10 acylglucuronide and serum was tested in FPE assay.

tetrameric TTR [9] = molecular target: T1, tetrameric TTR; assay: Phase 2 study, fluorescence probe (FPE) assay ex vivo; format: in vivo; settings: individual with V30M TTR mutation, 800 mg b.i.d.
Protocol: Aliquots of each serum sample are plated in 96 well plates. The fluorescence changes (λex=328 nm and λem=384 nm) after addition of probe are monitored every 15 min using a fluorescent capable microplate for 6 hr at RT.
as §3, §4

[10] = molecular target: T3, human serum albumin (HSA); assay: Gel filtration and dialysis binding to human serum albumin; parameters: albumin from human serum; Sigma Aldrich, catalog no.: A3782; purchased Sigma Aldrich A3782; host or cells: human serum; settings: 30 μM compound, 600 μM albumin
Protocol: The concentration of HSA (i.e. concentration at time zero) was also determined using NanoDrop™ (based on calibration curves of known HAS concentrations). […] The concentration of test compounds in these fractions (i.e. conc. at time zero) was evaluated using HPLC (based on calibration curves of known concentration of test compounds). 500 μL of each HSA/test compound samples was then added to a Slide-A-Lyzer Dialysis Cassette G2 (3.5K MWCO, Thermo Scientific, catalog no. P187722). The dialysis Cassettes were placed in 100 ml of assay buffer and stirred at room temperature. After 24 hr, the samples were removed from dialysis cassette and the volume was measured. The concentration of HAS and test compounds were determined using NanoDrop™ and HPLC as described above.

TTR [11] = molecular target: T2, TTR; assay: Isothermal titration calorimetry (ITC) with TTR in buffer; settings: 25° C.
Protocol: as §6

tetrameric TTR [12] = molecular target: T6, tetrameric TTR (Homo sapiens, UniProt P02766); assay: Fluorescent Probe Exclusion (FPE) assay on serum of Phase 1 subjects; format: in vivo; parameters: from tissue; host or cells: serum / blood plasma of dosed healthy human volunteers; settings: single dose of 300 mg and 800 mg
tetrameric TTR [13] = molecular target: T6, tetrameric TTR; assay: Western blot for stabilization of tetrameric TTR, Phase 1 subjects; format: in vivo; parameters: from tissue; host or cells: serum / blood plasma of dosed healthy human volunteers; settings: 800 mg AG10 HCl q12h, day 12 predose (trough) and post dose (peak); 72h acidification
Protocol: as §5

T3 sequence (P02768 25-609): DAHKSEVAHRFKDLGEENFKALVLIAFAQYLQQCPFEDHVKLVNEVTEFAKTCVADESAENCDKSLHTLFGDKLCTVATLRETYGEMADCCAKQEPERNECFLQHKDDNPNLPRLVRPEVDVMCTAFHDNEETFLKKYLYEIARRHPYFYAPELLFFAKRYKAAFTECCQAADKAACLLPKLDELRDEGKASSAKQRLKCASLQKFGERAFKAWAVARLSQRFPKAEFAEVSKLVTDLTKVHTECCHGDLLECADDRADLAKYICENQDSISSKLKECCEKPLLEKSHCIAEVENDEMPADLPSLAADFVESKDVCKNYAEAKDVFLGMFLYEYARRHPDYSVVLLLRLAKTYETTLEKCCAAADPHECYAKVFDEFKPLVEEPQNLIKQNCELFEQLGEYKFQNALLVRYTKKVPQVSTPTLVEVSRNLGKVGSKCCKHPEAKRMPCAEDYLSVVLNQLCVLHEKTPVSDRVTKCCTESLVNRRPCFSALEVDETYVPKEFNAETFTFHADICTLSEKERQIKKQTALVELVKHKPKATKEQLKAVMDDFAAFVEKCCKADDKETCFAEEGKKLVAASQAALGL

For Cc1n[nH]c(C)c1CCCOc1cc(C(=O)O)ccc1F [AG10, 3-(3-(3,5-dimethyl-1H-pyrazol-4-yl)propoxy)-4-fluorobenzoic acid], the “circulating trough concentration that is a suitable target based on stabilization of TTR” value ([1]; Phase 1 MAD 3 (800 mg Q12h) and Phase 2 ATTR-CM patients) was roughly 8 µM, the “effect of commonly used diuretics on exposure” value ([1]; furosemide or torsemide co-administration) was “do not interfere with exposure” and the clearance ([1]; healthy adult volunteers in Phase 1 vs subjects in Phase 2, patient status or diuretics (furosemide/torsemide)) was “No difference in clearance”. The volume of distribution ([1]; subjects on furosemide/torsemide compared to healthy adult volunteers) was “lower”, the “accumulation over 12 days of dosing” value ([2]; 100, 300, 800 mg every 12 hr for 12 days) was “No significant accumulation” and the Cmax ([2]; 100 mg, 100 mg q12 h, Day 1) was 8.67 µM. It also gave a Tmax ([2]; 100 mg, 100 mg q12 h, Day 1) of 47.6 min, an AUC(0-t) ([2]; 100 mg, 100 mg q12 h, Day 1) of 46.3 µM·h and a Cmax ([2]; 100 mg, 100 mg q12 h, Day 12) of 12.1 µM. For the same molecule, the Tmax ([2]; 100 mg, 100 mg q12 h, Day 12) was 33.7 min, the AUC(0-t) ([2]; 100 mg, 100 mg q12 h, Day 12) was 70.3 µM·h and the Cmax ([2]; 300 mg, 300 mg q12 h, Day 1) was 14.3 µM. It also gave a Tmax ([2]; 300 mg, 300 mg q12 h, Day 1) of 42.4 min, an AUC(0-t) ([2]; 300 mg, 300 mg q12 h, Day 1) of 65.2 µM·h and a Cmax ([2]; 300 mg, 300 mg q12 h, Day 12) of 23.5 µM. It also gave a Tmax ([2]; 300 mg, 300 mg q12 h, Day 12) of 33.7 min, an AUC(0-t) ([2]; 300 mg, 300 mg q12 h, Day 12) of 97.7 µM·h and a Cmax ([2]; 800 mg, 800 mg q12 h, Day 1) of 31.8 µM. The Tmax ([2]; 800 mg, 800 mg q12 h, Day 1) was 47.6 min, the AUC(0-t) ([2]; 800 mg, 800 mg q12 h, Day 1) was 120 µM·h and the Cmax ([2]; 800 mg, 800 mg q12 h, Day 12) was 42.5 µM. For the same molecule, the Tmax ([2]; 800 mg, 800 mg q12 h, Day 12) was 53.5 min, the AUC(0-t) ([2]; 800 mg, 800 mg q12 h, Day 12) was 159 µM·h and the “TTR stabilization at day 28 (western blot)” value (tetrameric TTR [3]) was “near complete TTR stabilization”. The “Blood Serum TTR Concentration, Average Change” value (TTR [4]; 400 mg b.i.d.) was 32%, the “Blood Serum TTR Concentration, Average Change” value (TTR [4]; 800 mg b.i.d.) was 35% and the Kd [5] was roughly 8 µM. The “Blood Serum TTR Concentration, Average Change” value (TTR [6]; 400 mg b.i.d.) was 51%, the “Blood Serum TTR Concentration, Average Change (baseline to day 28)” value (TTR [6]; 400 mg b.i.d.) was 36% and the “Blood Serum TTR Concentration, Average Change” value (TTR [6]; 800 mg b.i.d.) was 90%. The “Blood Serum TTR Concentration, Average Change (baseline to day 28)” value (TTR [6]; 800 mg b.i.d.) was 50%, the “share of cohort with serum TTR concentrations within normal range (20-40 mg/dL)” value (TTR [6]; after 28 days of treatment, each active cohort (400 mg and 800 mg b.i.d.)) was 100% and the “Blood Serum TTR Concentration, Average Change” value (TTR [7]) was 61%. The “binding to TTR in serum (FPE assay)” value (TTR [8]; 5 mg/kg per oral, 3 male monkeys) was “effectively binds to TTR in monkey serum”, the “TTR stabilization versus dose (FPE assay)” value (TTR [8]; orally administered) was “stabilized TTR in a dose dependent manner” and the “target engagement at day 14 (FPE)” value (tetrameric TTR [9]) was “near complete target engagement”. For the same molecule, the “concentration bound to HSA following dialysis vs buffer for 24 hr” value [10] was 7.8 ± 0.1 µM, the “concentration bound to albumin at time 0 (immediately after gel filtration)” value [10] was 18.3 ± 0.98 µM and the ΔH (TTR [11]) was -13.60 kcal/mol and -13.6 kcal/mol. For the same molecule, the “stabilization of TTR at peak concentrations (FPE assay)” value (tetrameric TTR [12]) was “complete stabilization” and the “stabilization of tetrameric TTR (Western blot)” value (tetrameric TTR [13]) was “full stabilization of tetrameric TTR”.
